Values quoted from earlier work as cited in article PMC9841982 (ACS Medicinal Chemistry Letters, 2022).

What was measured:
[1] = authors' earlier work with TAK-242
murine pancreatic islets = conditions: free TAK-242, murine islet transplantation

**Q.** What does the source list for `CCOC(=O)C1=CCCC[C@H]1S(=O)(=O)Nc1ccc(F)cc1Cl` [TAK-242, ethyl (6R)-6-[N-(2-Chloro-4-fluorophenyl)sulfamoyl]cyclohex-1-ene-1-carboxylate]?
**A.** sulfonamide bond stability [1]: relatively stable; effect of free drug on islets and transplant outcome (murine pancreatic islets): reduced sterile inflammation-mediated stress in islets during isolation and promoted successful transplant outcomes
